Results reported in PMC6268071, “α-Glucosidase Inhibitory Constituents from Acanthopanax senticosus Harm Leaves” (Molecules, 2012).
Read-outs that look alike come from different tables or passages of the source.

Biological target: α-Glucosidase (EC.3.2.1.20) from Saccharomyces sp.
Test: α-Glucosidase inhibition assay
Assay type: biochemical
Procedure: Open column chromatography was carried out using silica gel (200–300 mesh, Qingdao Marine Chemical Co., Qingdao, China) or octadecyl silica gel (ODS, 25–40 μm, Fuji, Tokyo, Japan) as stationary phases. TLC employed precoated silica gel plates (5–7 μm, Qingdao Marine Chemical Co., Qingdao, China). Preparative HPLC was carried out on a Waters 600 instument equipped with a Waters RID-2414 detector. A Waters Sunfire prep C18 OBD (19 × 250 mm i.d.; Milford, PA, USA) column was used for preparative purposes. The IR spectra were recorded as KBr pellets on a Jasco 302-A spectrometer. Optical rotation was recorded on a Jasco P-2000 polarimeter. HRESIMS were measured on a FTMS-7 instrument (Bruker Daltonics, Karlsruhe, Germany). Melting points were determined on a Gallenkemp apparatus and are uncorrected. The ^1H-, ^13C- and 2D (^1H-^1H COSY, HSQC, HMBC, NOESY) NMR spectra were recorded on a Bruker AMX-400 spectrometer using standard pulse sequences. Chemical shifts are reported in ppm (δ), and scalar coupling are reported in Hz. GC analyses were carried out using a Fuli 9790 instrument, DM-5 column (0.25 μm, 30 m × 0.25 mm, Dikma, Beijing, China). α-Glucosidase (EC.3.2.1.20) from Saccharomyces sp. was purchased from Wako Pure Chemical Indutries Ltd. (Wako 076-02841; Osaka, Japan).
The α-glucosidase (EC.3.2.1.20) enzyme inhibition assay has been performed according to the literature. α-Glucosidase (25 μL, 0.2 U/mL), various concentrations of samples (25 μL), and 67 mM phosphate buffer (pH 6.8, 175 μL) were mixed at room temperature for 10 min. Reactions were initiated by the addition of 23.2 mM p-nitrophenyl-α-D-glucopyranoside (25 μL). The reaction mixtures were incubated at 37 °C for 15 min in a final volume of 250 μL, and then 1 M Na2CO3 (50 μL) was added to the incubation solution to stop the reaction. The activities of glucosidase were detected in a 96-well plate, and the absorbance was read at 405 nm by a microplate spectrophotometer (Spectra Max, Molecular Devices, Sunnyvale, CA, USA). The negative control was prepared by adding phosphate buffer instead of the sample in the same way as the test. […] The blank was prepared by adding phosphate buffer instead of α-glucosidase using the same method. The inhibition rates (%) were calculated from the formula: […]

[1] = in vitro α-glucosidase inhibitory assay, substrate p-nitrophenyl-α-D-glucopyranoside, pH 6.8, 37 °C, value ± SEM, read-out: IC50 (μM ± SEM)
[2] = read-out: α-glucosidase inhibitory activity IC50

Compound | IC50 [1] | IC50 [2] | α-glucosidase inhibition activity (in words) (qualitative statement)
C=C(C)[C@@H]1C[C@H](O)[C@]2(C(=O)O[C@@H]3O[C@H](CO[C@@H]4O[C@H](CO)[C@@H](O[C@@H]5O[C@@H](C)[C@H](O)[C@@H](O)[C@H]5O)[C@H](O)[C@H]4O)[C@@H](O)[C@H](O)[C@H]3O)CC[C@]3(C)[C@H](C[C@H]4OC(=O)C[C@@H](O)[C@]5(C)[C@@H]4[C@@]3(C)CC[C@H]5C(=C)C)[C@@H]12 [Compound 4, 22α-hydroxychiisanoside] | 820 ± 91.6 µM | 908 µM | 
C=C(C)[C@@H]1CC[C@]2(C(=O)O[C@@H]3O[C@H](CO[C@@H]4O[C@H](CO)[C@@H](O[C@@H]5O[C@@H](C)[C@H](O)[C@@H](O)[C@H]5O)[C@H](O)[C@H]4O)[C@@H](O)[C@H](O)[C@H]3O)CC[C@]3(C)[C@H](C[C@H]4OC(=O)C[C@@H](O)[C@]5(C)[C@@H]4[C@@]3(C)CC[C@H]5C(=C)C)[C@@H]12 [Compound 3, chiisanoside] | > 1000 µM |  | 
COC(=O)[C@H]1O[C@@H](O[C@H]2CC[C@@]3(C)C(CC[C@]4(C)C3CC=C3C5CC(C)(C)CC[C@]5(C(=O)O)CC[C@]34C)C2(C)C)[C@H](O)[C@@H](O)[C@@H]1O (stereo partly drawn) [Compound 2, 3-O-(β-D-glucuronopyranosyl-6-O-methyl ester)-olean-12-ene-28-olic acid] | > 1000 µM |  | 
COC(=O)[C@H]1O[C@@H](O[C@H]2CC[C@@]3(C)C(CC[C@]4(C)C3CC=C3C5CC(C)(C)CC[C@]5(C(=O)O)CC[C@]34C)C2(C)C)[C@H](O[C@@H]2O[C@@H](C)[C@H](O)[C@@H](O)[C@H]2O)[C@@H](O)[C@@H]1O (stereo partly drawn) [Compound 1, 3-O-[(α-L-rhamnopyranosyl)(1→2)]-[β-D-glucuronopyranosyl-6-O-methyl ester]-olean-12-ene-28-olic acid] | 908 ± 67.3 µM | 186 µM | 

Now from value to compound, other results behind:

IC50 [1] | IC50 [2] | Compound | α-glucosidase inhibition activity (in words) (qualitative statement)
> 1000 µM |  | COC(=O)CC1C(=O)Nc2ccc(OC)cc21 (stereo not drawn) [Compound 5, 5-methoxy-2-oxoindolin-3-acetic acid methyl ester] | 
> 1000 µM |  | OCc1ccc(-c2nccc3c2[nH]c2ccccc23)o1 [Compound 7, perlolyrine] | 
186 ± 12 µM | 820 µM | Oc1ccc([C@H]2Oc3cc(O)cc(O)c3C[C@@H]2O)cc1 [Compound 6, (+)-afzelechin] | significant α-glucosidase inhibition activity
> 1000 µM |  | O=C(O)c1cc2c([nH]c3ccccc32)c(-c2ccc(CO)o2)n1 [Compound 8, 3-carboxylperlolyrine] | 
